Source: patent publication EP0372541A1, “Method for imparting immunosuppression” (priority 1988, dated 1990)

Key:
[1] = system: cyclosporine-treated renal transplant recipients; assay: Randomized, double-blind, placebo controlled clinical study in renal transplant recipients on cyclosporine; assay type: in vivo, human; conditions: for Acute Rejection / Creatinine / Creatinine Clearance: 200 µg Q.I.D. with cyclosporine
Excerpt: A randomized, double-blind, placebo controlled study was designed: (1) to determine the safety and efficacy of a PGE₁ prostaglandin in reducing cyclosporine-induced nephrotoxicity in renal transplant recipients; and (2) to examine the effects of the PGE₁ prostaglandin on the incidence rate of clinically important events such as acute transplant rejection.
The PGE, prostaglandin evaluated was misoprostol, ((±) methyl 11α, 16-dihydroxy-16-methyl-9-oxoprost-13E-en-1-oate). Subjects received the PGE₁ prostaglandin in dosages of 200 µg or a placebo four times a day (Q.I.D.) for the first twelve weeks following transplantation. A study population of 77 subjects was evaluated. Efficacy was assessed by a serial comparison of renal function and by measuring the duration and functional severity of transplant rejection, cyclosporine nephrotoxicity, and other episodes of acute renal failure in the PGE₁ prostaglandin and the placebo groups. Serial measurements of serum creatinine and creatinine clearance were used to determine trends and differences in renal function between treatment groups.
The subjects in the clinical study were first stratified into two groups according to the source of the allograft, cadaver or living-related donor. Members of each group were assigned at random in the order of enrollment to receive the PGE₁ prostaglandin or the placebo according to a computer-generated assignment schedule prepared prior to the start of the study. The purpose of this approach was to guarantee adequate randomization of subjects as a function of allograft source and probable post-transplantation function.
The administration of the prostaglandin began with the first dose of cyclosporine. The subjects received the .prostaglandin Q.I.D. given 30-60 minutes p.c. (after a meal) and h.s. (at night). The prostaglandin initially could be administered via a nasogastric tube. Following discharge of the patient from the hospital. the patient began to administer the placebo or prostaglandin and recording the dosing in a diary. The test article dosing remained one tablet Q.I D. continuing the 30-60 minute p.c and h.s. schedule.
Hematology and chemistry profiles were obtained on the first and seventh post-transplantation days and again after four weeks. A chemistry profile was obtained at eight and twelve weeks. A urinalysis was obtained on the first post-operative day and again after four weeks.
Twenty-four hour creatinine clearance measurements were obtained on post-operative days one, three, and seven, then weekly for three weeks and at four week intervals thereafter until the study was terminated.
Serum creatinine measurements were obtained on postoperative days 1, 3 and 7, and then at weeks 4, 8, 12 and 16.
Measurement of trough cyclosporine levels were required on days one, three, five and seven; twice during each of weeks two, three and four; and at least once during weeks eight, twelve and sixteen.
Acute renal failure was defined as the presence of any of the following: • 1) Any change in renal function which prompted the principal investigator to perform a diagnostic maneuver (e.g., measure of serum creatinine concentration or urinary sodium concentration) or therapeutic maneuver (e.g., give intravenous fluids) to investigate or treat the change. • 2) A rise in serum creatinine concentration from a stable base line of at least 0.2 mg/dl/day for two days or 0.3 mg/dl in one day. • 3) A fall in urine output to less than an average of 25 ml per hour for more than 24 hours.
After twelve weeks of treatment and four additional weeks of observation, the subject underwent a physical examination and a complete medical history was reviewed. The following laboratory tests were also obtained: hematology, PT/PTT, chemistry, urinalysis. creatinine clearance, cyclosporine level and serum beta HCG (where appropriate). In addition, any other measurements of creatinine concentration or clearance obtained during the post-treatment period were recorded.

[2] = system: mixed lymphocyte response; assay: Mixed lymphocyte response (MLR) assay, tritiated thymidine incorporation; assay type: cell-based; conditions: Figures 9 and 10; for inhibition of the mixed lymphocyte response in combination with cyclosporine: free acid added to cyclosporine; for inhibition of the mixed lymphocyte response in combination with methylprednisolone: free acid added to methylprednisolone
Excerpt: The mixed lymphocyte response is a clinically useful predictor of the immunosuppressive activity of drugs.The mixed lymphocyte response assay data shown below and in Figures 7-10 were obtained with the following method. A stimulator panel of Epstein-Barr virus (EBV) transformed continuous lymphoblastoid cell lines was employed to magnify responses. There were equal numbers of four cell lines with eight different HLA-DR antigens (two per cell line). Stimulator cells were irradiated (13,000 rad) before suspension in a modified RPMI medium. Responder lymphocytes were prepared from heparinized recipient blood by density gradient separation before suspension in glutamine with antibiotic-supplemented RPMI medium containing 10% autologous serum. Equal numbers of responder and stimulator cells (1x 10⁵ in 0.1 ml) were incubated with 0.05 ml of medium (control) or varying concentrations of the three prostaglandin analogs (misoprostol, enisoprost and misoprostol-free acid) or methylprednisolone or cyclosporine or combinations of these agents.
Following incubation at 37°C and 5% CO₂ for five days, one microcurie of tritiated thymidine was added and cell cultures incubated for six hours. Cells were then harvested. MLR responses for the three different prostaglandin analogs were then compared for several different concentrations (Figure 7). The effects of the prostaglandins were also compared to those of the control ethanol diluent (Figure 8).

[3] = 1 Month after renal transplantation
[4] = 2 Months after renal transplantation
[5] = 3 Months after renal transplantation
[6] = listed as PGE₁ prostaglandin free acid

Structure (SMILES) | Acute Rejection [1, 3] [first episode/mo] | Creatinine [1, 3] [mg/dL] | Creatinine Clearance [1, 3] [ml/min/1.73m2] | Acute Rejection [1, 4] [first episode/mo] | Creatinine [1, 4] [mg/dL] | Creatinine Clearance [1, 4] [ml/min/1.73m2] | Acute Rejection [1, 5] [first episode/mo] | Creatinine [1, 5] [mg/dL] | Creatinine Clearance [1, 5] [ml/min/1.73m2] | renal function ([1]; cyclosporine-treated renal transplant recipients, versus placebo) | acute rejection versus placebo ([1]; during the three months of treatment, p = 0.015) | cyclosporine absorption (cyclosporine dosage and trough blood levels by HPLC) ([1]; human, in vivo) | cyclosporine nephrotoxicity (incidence rate of first episodes) ([1]; versus placebo, Figure 5) | inhibition of the mixed lymphocyte response in combination with cyclosporine [2] | inhibition of the mixed lymphocyte response in combination with cyclosporine [2, 6] | inhibition of the mixed lymphocyte response in combination with methylprednisolone [2] | inhibition of the mixed lymphocyte response in combination with methylprednisolone [2, 6]
CCCCC(C)(O)C/C=C/[C@H]1[C@H](O)CC(=O)[C@@H]1CCCCCCC(=O)OC (mixture of isomers) [PGE₁, (±) methyl 11α, 16-dihydroxy-16-methyl-9-oxoprost-13E-en-1-oate] | 3 | 1.6 ± 0.2 | 73 ± 5 | 2 | 1.4 ± 0.1 | 77 ± 6 | 2 | 1.4 ± 0.1 | 81 ± 5 | improved renal function | significantly reduced | no interference with cyclosporine absorption | no increase in cyclosporine nephrotoxicity |  |  |  | 
CCCCC(C)(O)CC=CC1C(O)CC(=O)C1CCCCCCC(=O)O (racemic) [misoprostol free acid] |  |  |  |  |  |  |  |  |  |  |  |  |  | clear evidence of enhancement of immunosuppressive activity | larger than additive effect | clear evidence of enhancement of immunosuppressive activity | larger than additive effect
